Measurements from ChEMBL document CHEMBL3044558, “Structure-activity relationship development of dihaloaryl triazole compounds as insecticides and acaricides. 1. Phenyl thiophen-2-yl triazoles” (2007).

Tests used:
Type in all cases: functional
Tetranychus urticae = assay: Insecticidal activity against female Tetranychus urticae (two-spotted spider mite) infested cotton leaf disks followed by 2.5 ppm compound spraying after oviposit assessed as insect mortality measured after 6 days post compound application under green house conditions; details: foliar, 144 h
Bemisia tabaci = assay: Insecticidal activity against Bemisia tabaci (sweet potato whitefly) second-instar larvae infested five weeks old cotton plants followed by compound 250 ppm compound spraying after insect oviposit assessed as insect mortality measured 13 days post compound treatment under green house conditions
Heliothis virescens = assay: Insecticidal activity against Heliothis virescens (tobacco budworm) second-instar larvae infested on 400 ppm compound pre-treated cotton cotyledon disk assessed as insect mortality measured 5 days post compound treatment under green house conditions
Spodoptera exigua = assay: Insecticidal activity against Spodoptera exigua second-instar larvae feeded on 400 ppm compound treated lepidopteran diet assessed as insect mortality measured 5 days post compound treatment under green house conditions; details: at 400 ppm
Trichoplusia ni = assay: Insecticidal activity against Trichoplusia ni (cabbage looper) second-instar larvae infested on 400 ppm compound pre-treated cabbage leaf disk assessed as insect mortality measured 5 days post compound treatment under green house conditions; details: at 400 ppm
Aphis gossypii = assay: Insecticidal activity against Aphis gossypii (cotton aphid) infested one week old Crookneck squash plants assessed as insect mortality at 50 ppm measured after 3 days post compound application under green house conditions; details: 72 h

| SMILES | mortality at 2.5 ppm (Tetranychus urticae) [%] | mortality (Bemisia tabaci) [%] | mortality (Heliothis virescens) [%] | mortality (Spodoptera exigua) [%] | mortality (Trichoplusia ni) [%] | mortality at 50 ppm (Aphis gossypii) [%] |
| --- | --- | --- | --- | --- | --- | --- |
| Cc1c(-c2ccc(OC(F)(F)C(Cl)Cl)cc2)csc1-c1nc(-c2c(F)cccc2Cl)nn1C | 90 | 90 | 90 | 90 | <50 | 90 |
| Cc1c(-c2ccc(OC(F)(F)C(F)C(F)(F)F)cc2)csc1-c1nc(-c2c(F)cccc2Cl)nn1C (stereo not drawn) | 90 | 90 | 90 | 60 | 90 | 90 |
| CCOc1ccc(-c2csc(-c3nc(-c4c(F)cccc4Cl)nn3C)c2C)cc1 | 90 | 90 | 90 | 80 | 90 | 50 |
| Cc1cc(-c2ccc(OC(F)(F)C(F)C(F)(F)F)cc2)sc1-c1nc(-c2c(F)cccc2Cl)nn1C (stereo not drawn) | 90 | <50 | 90 | 80 | 90 | 90 |
| Cc1cc(-c2ccc(Cl)cc2)sc1-c1nc(-c2c(F)cccc2Cl)nn1C | 90 | 60 | 90 | 90 | 90 | 60 |
| Cc1c(-c2ccc(OC(F)=C(Cl)Cl)cc2)csc1-c1nc(-c2c(F)cccc2Cl)nn1C | 90 | 70 | 90 | 80 | <50 | 70 |
| Cc1cc(-c2ccc(OC(F)(F)C(Cl)Cl)cc2)sc1-c1nc(-c2c(F)cccc2Cl)nn1C | 90 | 50 | 90 | 90 | 80 | 90 |
| Cc1cc(C2CCC(OC(F)(F)C(F)Cl)CC2)sc1-c1nc(-c2c(F)cccc2Cl)nn1C (stereo not drawn) | 80 |  | 90 | 90 | 90 | < 50 |
| CSc1ccc(-c2cc(Cl)c(-c3nc(-c4c(F)cccc4Cl)nn3C)s2)cc1 | 90 | <50 | 90 | 60 | 80 | 60 |
| Cc1c(-c2ccc(OC(F)(F)F)cc2)sc(-c2nc(-c3c(F)cccc3Cl)nn2C)c1C | 90 | 70 | <50 | 80 | 90 | < 50 |
| Cc1c(-c2ccc(OC(F)(F)C(F)Cl)cc2)sc(-c2nc(-c3c(F)cccc3Cl)nn2C)c1C (stereo not drawn) | 80 | 60 | 90 | 60 | <50 | < 50 |
| Cc1sc(-c2nc(-c3c(F)cccc3Cl)nn2C)c(C)c1-c1ccc(OC(F)(F)F)cc1 | 90 | 60 | 90 | 90 | <50 | 70 |
| Cn1nc(-c2c(F)cccc2Cl)nc1-c1sc(-c2ccc(C(F)(F)F)cc2)cc1Cl | 90 | <50 | 90 | 60 | 90 | 90 |
| Cc1cc(-c2ccc(C(F)(F)F)cc2)sc1-c1nc(-c2c(F)cccc2Cl)nn1C | 90 | <50 | 90 | 90 | 90 | < 50 |
| Cc1sc(-c2nc(-c3c(F)cccc3Cl)nn2C)c(C)c1-c1ccc(OC(F)(F)C(F)Br)cc1 (stereo not drawn) | 80 | 80 | 90 | 80 |  | 50 |
